Measured values published in patent publication US20070010489A1 (priority 2002, published 2007).
Where two headings read alike, the source gives them in different places.

Assays:
HIV = assay: microbe, parasite or virus in culture; assay type: cell-based; conditions: Human immunodeficiency virus 1
I50V (#1) = system: I50V (#1); design: key to the marks not given beside the values
I84V/L90M = system: I84V/L90M; design: key to the marks not given beside the values
48V54V82S = assay: microbe, parasite or virus in culture; assay type: cell-based, HIV
46I50V = assay: microbe, parasite or virus in culture; assay type: cell-based, HIV
84V90M [1] = molecular target: T1, 84V90M (Human immunodeficiency virus type 1 group M subtype B, UniProt P04585, I572V/L578M); assay: cell-based; design: species or system HIV; conditions: Cell-based assay (MT-4)
84V90M [2] = molecular target: T1, 84V90M; assay type: biochemical, HIV; conditions: Enzymatic assay
30N82I88D = assay: microbe, parasite or virus in culture; assay type: cell-based, HIV
48V54V82A = assay: microbe, parasite or virus in culture; assay type: cell-based, HIV
WT = assay: microbe, parasite or virus in culture; assay type: cell-based, HIV
48V82A90M = assay: microbe, parasite or virus in culture; assay type: cell-based, HIV
84V90M [3] = molecular target: T1, 84V90M; assay: biochemical; assay type: biochemical, HIV; conditions: Enzymatic assay
[4] = molecular target: T2, recombinant HIV-1 protease (Human immunodeficiency virus type 1 group M subtype B, UniProt P04585); assay: biochemical; conditions: for Ki: read-out: Ki; for IC50: read-out: WT IC50
T2 construct: Enzyme: recombinant HIV-1 protease expressed in E. Coli; purchased Bachem California, Inc. H-9040; host or cells: E. coli

[5] = system: Recombinant HIV-1 Strains With Resistance Mutations in the Protease Gene; assay: Cross-Resistance Profile Assay, whole panel; assay type: cell-based; conditions: resistance = 5-fold and higher change in EC50 vs wild type; 11 mutant viruses
[6] = system: recombinant HIV-1 48V/54V/71V/82S; assay: microbe, parasite or virus in culture; assay type: cell-based; conditions: MT-4, 48V54V82S; read-out: Cell-based assay (MT-4) EC50/nM 48V54V82S
[7] = system: recombinant HIV-1 46I/47V/50V; assay: microbe, parasite or virus in culture; assay type: cell-based; conditions: MT-4, 46I50V; read-out: Cell-based assay (MT-4) EC50/nM 46I50V
[8] = system: recombinant HIV-1 10I/48V/54V/82A; assay: microbe, parasite or virus in culture; assay type: cell-based; conditions: MT-4, 48V54V82A; read-out: Cell-based assay (MT-4) EC50/nM 48V54V82A
[9] = system: mutant HIV-1 with I84V/L90M mutations; assay: microbe, parasite or virus in culture; assay type: cell-based
[10] = system: recombinant HIV-1 30N/50S/82I/88D; assay: microbe, parasite or virus in culture; assay type: cell-based; conditions: MT-4, 30N82I88D; read-out: Cell-based assay (MT-4) EC50/nM 30N82I88D
[11] = system: recombinant HIV-1 10I/48V/71V/82A/90M; assay: microbe, parasite or virus in culture; assay type: cell-based; conditions: MT-4, 48V82A90M; read-out: Cell-based assay (MT-4) EC50/nM 48V82A90M
[12] = system: wild-type HIV-1 strain IIIB; assay: microbe, parasite or virus in culture; assay type: cell-based; conditions: Human immunodeficiency virus 1, IIIB
[13] = Human immunodeficiency virus 1, read-out: EC50 30N 82I88D
[14] = Human immunodeficiency virus 1, read-out: EC50 WT
[15] = Human immunodeficiency virus 1, read-out: EC50 46I50V
[16] = Human immunodeficiency virus 1, read-out: EC50 48V54V 82A

COc1ccc(S(=O)(=O)N(Cc2ccccc2)CC(O)C(Cc2ccccc2)NC(=O)OC2COC3OCCC23)cc1 (stereo not shown)
EC50 (HIV): < 50 nM | I50V (#1) fold change (I50V (#1)): +++ | I84V/L90M fold change (I84V/L90M): +++

COc1ccc(S(=O)(=O)N(CC(O)C(Cc2ccccc2)NC(=O)OC2COC3OCCC23)CC(C)(C)CO)cc1 (stereo not shown)
EC50 (HIV): < 50 nM | I50V (#1) fold change (I50V (#1)): +++ | I84V/L90M fold change (I84V/L90M): +++

COc1ccc(S(=O)(=O)N(CC(O)C(Cc2ccccc2)NC(=O)OC2COC3OCCC23)CC(C)(C)COCP(=O)(O)O)cc1 (stereo not shown)
EC50 (HIV): 500 to 5000 nM | I84V/L90M fold change (I84V/L90M): +++

CCOP(=O)(COCC(C)(C)CN(CC(O)C(Cc1ccccc1)NC(=O)OC1COC2OCCC12)S(=O)(=O)c1ccc(OC)cc1)OCC (stereo not shown)
EC50 (HIV): < 50 nM | I84V/L90M fold change (I84V/L90M): +++

COc1ccc(S(=O)(=O)N(CC(O)C(Cc2ccccc2)NC(=O)OC2COC3OCCC23)CC(C)(C)COCP(=O)(OCc2ccccc2)OCc2ccccc2)cc1 (stereo not shown)
EC50 (HIV): < 50 nM | I84V/L90M fold change (I84V/L90M): ++

COc1ccc(S(=O)(=O)N(CC(O)C(Cc2ccccc2)NC(=O)OC2COC3OCCC23)CC(C)(C)CCOCP(=O)(O)O)cc1 (stereo not shown)
EC50 (HIV): 50 to 500 nM | I50V (#1) fold change (I50V (#1)): ++ | I84V/L90M fold change (I84V/L90M): ++

COc1ccc(S(=O)(=O)N(CC(O)C(Cc2ccccc2)NC(=O)OC2COC3OCCC23)CC(C)(C)CCOCP(=O)(OCc2ccccc2)OCc2ccccc2)cc1 (stereo not shown)
EC50 (HIV): < 50 nM | I50V (#1) fold change (I50V (#1)): +++ | I84V/L90M fold change (I84V/L90M): +++

O=C1N(Cc2ccccc2)C(Cc2ccccc2)C(O)C(O)C(Cc2ccc(OCP(=O)(O)O)cc2)N1Cc1ccccc1 (stereo not shown) [listing 1 of 2 here]
EC50 (48V54V82S; Cell-based assay (MT-4), 48V54V82S, read-out: EC50 48V54V 82S): 1900 nM | EC50 (46I50V; Cell-based assay (MT-4), 46I50V, read-out: EC50 46I50V): 589 nM | EC50 (84V90M [1]): 2460 nM | IC50 (84V90M [2]): 48 nM | EC50 (30N82I88D; Cell-based assay (MT-4), 30N82I88D, read-out: EC50 30N 82I88D): 293 nM | EC50 (48V54V82A; Cell-based assay (MT-4), 48V54V82A, read-out: EC50 48V54V 82A): 1440 nM | EC50 (WT; read-out: EC50 WT): 107 nM | EC50 (48V82A90M; read-out: EC50 48V82A 90M, Cell-based assay (MT-4), 48V82A90M): 3290 nM

O=C1N(Cc2ccccc2)C(Cc2ccccc2)C(O)C(O)C(Cc2ccc(OCP(=O)(OCc3ccccc3)OCc3ccccc3)cc2)N1Cc1ccccc1 (stereo not shown)
IC50 (84V90M [3]): 158 nM

O=C1N(Cc2ccccc2)C(Cc2ccccc2)C(O)C(O)C(Cc2ccc(OCP(=O)(O)O)cc2)N1Cc1ccccc1 (stereo not shown) [listing 2 of 2 here]
IC50 (84V90M [3]): 210 nM

Nc1n[nH]c2ccc(CN3C(=O)N(Cc4cccc(OCP(=O)(OCc5ccccc5)OCc5ccccc5)c4)C(Cc4ccccc4)C(O)C(O)C3Cc3ccccc3)cc12 (stereo not shown)
EC50 (84V90M [1]): > 6000 nM | IC50 (84V90M [2]): 43 nM | Ki [4]: 0.177 nM | IC50 [4]: 18 nM

CCOP(=O)(COc1cccc(CN2C(=O)N(Cc3ccc4[nH]nc(N)c4c3)C(Cc3ccccc3)C(O)C(O)C2Cc2ccccc2)c1)OCC (stereo not shown)
EC50 (84V90M [1]): 3000 nM | IC50 (84V90M [2]): 169 nM | Ki [4]: 1.93 nM | IC50 [4]: 70 nM

Nc1n[nH]c2ccc(CN3C(=O)N(Cc4ccc(OCP(=O)(OCc5ccccc5)OCc5ccccc5)cc4)C(Cc4ccccc4)C(O)C(O)C3Cc3ccccc3)cc12 (stereo not shown)
EC50 (84V90M [1]): 4960 nM | IC50 (84V90M [2]): 2040 nM | Ki [4]: > 5 nM | IC50 [4]: 276 nM

CCOP(=O)(COc1ccc(CN2C(=O)N(Cc3ccc4[nH]nc(N)c4c3)C(Cc3ccccc3)C(O)C(O)C2Cc2ccccc2)cc1)OCC (stereo not shown)
EC50 (84V90M [1]): > 6000 nM | IC50 (84V90M [2]): 1470 nM | Ki [4]: > 5 nM | IC50 [4]: 627 nM

CCCCOC(=O)C(C)NP(=O)(COc1ccc(CC(NC(=O)OC2COC3OCCC23)C(O)CN(CC(C)C)S(=O)(=O)c2ccc(OC)cc2)cc1)NC(C)C(=O)OCCCC (stereo not shown) [GS-16503]
Total No. of Resistant Viruses [5]: 0

O=C1N(Cc2ccccc2)C(Cc2ccccc2)C(O)C(O)C(Cc2ccccc2)N1Cc1ccccc1 (stereo not shown) [H, Ph, H]
IC50 (84V90M [2]): 631 nM | EC50 (30N82I88D; [13]): 3360 nM | EC50 (WT; [14]): 2490 nM | IC50 [4]: 34 nM

CCOP(=O)(COc1ccc(CC2C(O)C(O)C(Cc3ccc(OC)cc3)N(Cc3cccc(N)c3)C(=O)N2Cc2cccc(N)c2)cc1)OCC (stereo not shown) [OCH3, Ph-mNH2, OCH2PO3Et2]
IC50 (84V90M [3]): 56 nM | EC50 (84V90M [1]): 535 nM | IC50 (84V90M [2]): 56 nM

CCOP(=O)(COc1ccc(CC2C(O)C(O)C(Cc3ccc(OC)cc3)N(Cc3ccc(O)cc3)C(=O)N2Cc2ccc(O)cc2)cc1)OCC (stereo not shown) [OCH3, Ph-pOH, OCH2PO3Et2]
EC50 [6]: 129 nM | EC50 [7]: 90 nM | EC50 [8]: 70 nM | EC50 ([9]; MT-4, 84V90M, read-out: Cell-based assay (MT-4) EC50/nM 84V90M): 148 nM | EC50 [10]: 25 nM | EC50 [11]: 54 nM

CCOP(=O)(CCNC(=O)Oc1ccc(CC2C(O)C(O)C(Cc3ccc(OC)cc3)N(Cc3ccc(O)cc3)C(=O)N2Cc2ccc(O)cc2)cc1)OCC (stereo not shown) [OCH3, Ph-pOH, OCONH(CH2)2PO3Et2]
IC50 (84V90M [3]): 49 nM

O=C1N(Cc2ccccc2)C(Cc2ccc(O)cc2)C(O)C(O)C(Cc2ccc(O)cc2)N1Cc1ccccc1 (stereo not shown) [OH, Ph, OH]
EC50 (46I50V; [15]): 928 nM | EC50 (84V90M [1]): 5610 nM | IC50 (84V90M [2]): 397 nM | EC50 (30N82I88D; [13]): 756 nM | EC50 (48V54V82A; [16]): 2270 nM | EC50 (WT; [14]): 117 nM | IC50 [4]: 31 nM

COc1ccc(S(=O)(=O)N(CC(C)C)CC(O)C(Cc2ccc(OCP(=O)(OCc3ccccc3)OCc3ccccc3)cc2)NC(=O)OC2COC3OCCC23)cc1 (stereo not shown) [drawing 1768 R1=OBn R2=OBn]
EC50 [12]: < 50 nM | I84V/L90M fold change ([9]; fold difference in EC50 mutant vs wild type, class symbols): − (≦3) | CC50 (MT-2 cells; human): 5000 to 50000 nM

CCOC(=O)C(C)OP(=O)(COc1ccc(CC(NC(=O)OC2COC3OCCC23)C(O)CN(CC(C)C)S(=O)(=O)c2ccc(OC)cc2)cc1)Oc1ccccc1 (stereo not shown) [drawing 1775 R1=OPh R2=Lac-Et]
CC50 (MT-2 cells; class symbols): 5000 to 50000 nM

Nc1n[nH]c2ccc(CN3C(=O)N(Cc4cccc(OCP(=O)(O)O)c4)C(Cc4ccccc4)C(O)C(O)C3Cc3ccccc3)cc12 (stereo not shown) [m-OCH2PO3H2]
IC50 (84V90M [2]): 33 nM | EC50 (WT; read-out: EC50 WT): > 12000 nM

Nc1n[nH]c2ccc(CN3C(=O)N(Cc4cccc(O)c4)C(Cc4ccccc4)C(O)C(O)C3Cc3ccccc3)cc12 (stereo not shown) [m-OH]
EC50 (84V90M [1]): 475 nM | IC50 (84V90M [2]): 12 nM | Ki [4]: 0.128 nM | IC50 [4]: 1.6 nM

Nc1n[nH]c2ccc(CN3C(=O)N(Cc4ccc(OCc5ccccc5)cc4)C(Cc4ccccc4)C(O)C(O)C3Cc3ccccc3)cc12 (stereo not shown) [p-OBn]
EC50 (84V90M [1]): 5310 nM | EC50 (WT; read-out: EC50 WT): 2120 nM | Ki [4]: > 5 nM | IC50 [4]: 353 nM

Nc1n[nH]c2ccc(CN3C(=O)N(Cc4ccc(O)cc4)C(Cc4ccccc4)C(O)C(O)C3Cc3ccccc3)cc12 (stereo not shown) [p-OH]
EC50 (48V54V82S; Human immunodeficiency virus 1, read-out: EC50 48V54V 82S): 39 nM | EC50 (46I50V; [15]): 55 nM | EC50 (30N82I88D; [13]): 79 nM | EC50 (48V54V82A; [16]): 32 nM | EC50 (48V82A90M; Human immunodeficiency virus 1, read-out: EC50 48V82A 90M): 19 nM
